Measurements published in patent publication US20160159861A1, “APJ Receptor Compounds” (priority 2013, published 2016).
Like-named read-outs stand apart in the source and are kept apart here. Peptide text beside a SMILES is read from it.

Assays:
rat peritoneal cells = assay: Ex vivo histamine release assay in rat peritoneal cells (vs. Compound 48/80); type: cell-based
Text: More desirable pharmacological tolerability can include a decrease in an undesirable side effect (e.g., histamine release, an indicator of mast cell degranulation) without a significant loss in activity of the compound.
Screening of the variant G protein receptor compounds against a control compound for histamine release can be done following standard assays. The standard assay can include comparison to a control compound known to elicit a histamine response (e.g., 48/80 having CAS No. 94724-12-6). Such an assay using rat peritoneal cells is described herein for the APJ compounds.
Test compounds were assayed in the ex vivo histamine release assay using a 3-point dose response. Concentrations of total histamine contained in the cells is used to correct for variability in the numbers of mast cells in the lavage per well.
Resident peritoneal cells were harvested from naïve Sprague Dawley rats (male 200-300 gr, Charles River). Rats were euthanized by CO2 asphyxiation and a skin incision was made along the middle-line of the abdomen. Thirty milliliters of HBSS (HyClone, cat#SH 30268.01) containing 20 mM HEPES and 0.2% BSA (heretofore Assay Buffer) were injected intraperitoneally using a 30 mL syringe with the attached 18 gauge needle. The abdomen was gently lavaged for 1-2 min and 7-10 milliliters of the peritoneal lavage were carefully aspirated. Cell count in the peritoneal lavage was determined using Cellometer Auto T4 (Nexcelom Bioscience). The peritoneal cell count was adjusted to […] cells/mL in Assay Buffer. Rat peritoneal cells were kept at room temperature before and during the assay.
For the 10-point assay, 3-fold serial dilutions were prepared for each test compound in 100% DMSO in 96-well plates (Greiner Bio One, Ref#651261)—from 100 μM down to […]. For the 3-point assay, 10-fold serial dilutions were prepared in 100% DMSO at 100 μM, 10 μM and 1 μM concentrations. From this plate, 5 μL of compound were transferred to a new plate containing 45 μL Assay Buffer to generate a compound plate with 10× final concentrations in 10% DMSO with Assay Buffer. In the final plates, column 11 contained 1% DMSO for the low-histamine-releasing control.
Suspensions of the rat peritoneal cells (90 μL of 2.75×10^5 cells/mL; →25,000 cells per well) were introduced into each well of a new 96-well microtiter plate (Greiner Bio One, Ref#651261) and 10 μL aliquots of the serially diluted compounds were transferred to the cells in each well. The microtiter plate was incubated for 30 min at room temperature. Following incubation cells were spun down (500 rpm, 7 min) and supernatants were collected for further analysis. Supernatants were diluted 6 times with the assay buffer (15 μL to 75 μL, for 90 μL total) and released histamine content was determined using HTRF® Histamine assay kit (CisBio, cat#62HTMPEB). To measure the total histamine in each well, cells were lysed by addition of 15 μL 5% TritonX-100 to each well followed by incubation for 15 minutes. The plates were then spun at 3000 rpm for 5 minutes, and 10 μL of supernatant were diluted 9-fold in assay buffer (10 μL to 80 μL for 90 μL total) to make the “total” histamine plate. Histamine content was measured as described above for the “released” histamine values.
The standard positive control was Compound 48/80 (Enzo Life Sciences), a oligomeric polymer mixture produced by the condensation of N-methyl-p-methoxyphenethylamine with formaldehyde. The trimer is the most abundant in the mixture Compound 48/80 is used to promote mast cell degranulation and activates G proteins by a mechanism analogous to that of mastoparan. […] See references: T. Higashijima et al., J. Biol., Chem., 265 14176 (1990); M. Mousli et al., FEBS Lett., 259 260 (1990); K. Gietzen et al., Biochim. Biophys. Acta, 736 109 (1983); K. Gietzen, Biochem. J., 1983 216 611 and C. Bronner et al., Biochim. Biophys. Acta, 920 301(1987).

[1] = target: T1, human APJ receptor (hAPJ) (Homo sapiens, UniProt P35414); assay: HTRF cAMP assay: inhibition of NKH477-stimulated cAMP in HEK cells stably expressing hAPJ; type: cell-based; conditions: for % IA (cAMP inhibition, hAPJ HEK): intrinsic activity; for Ranking: composite class of EC50 (hAPJ), % IA and % histamine or formal (+) charge; for Emax: HEK293, read-out: % IA, bound stated
T1 construct: expressed in transfected cells
T1 sequence (P35414 1-380): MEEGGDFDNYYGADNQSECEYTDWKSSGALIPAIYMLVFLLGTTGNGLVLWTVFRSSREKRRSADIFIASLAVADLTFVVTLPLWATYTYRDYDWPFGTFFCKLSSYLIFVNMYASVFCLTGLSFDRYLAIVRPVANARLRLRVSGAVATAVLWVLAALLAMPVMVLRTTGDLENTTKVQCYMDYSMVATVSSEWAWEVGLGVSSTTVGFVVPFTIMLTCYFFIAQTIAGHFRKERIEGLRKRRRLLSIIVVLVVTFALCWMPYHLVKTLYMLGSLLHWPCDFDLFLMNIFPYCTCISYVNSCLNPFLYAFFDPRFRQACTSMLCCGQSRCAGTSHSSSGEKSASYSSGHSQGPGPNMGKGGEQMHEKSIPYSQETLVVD
Text: HTRF cAMP Assay and IP-One Assay (Cisbio)
HTRF (homogeneous time resolved fluorescence) is a technology developed by Cisbio Bioassays based on TR-FRET (time-resolved fluorescence resonance energy transfer). Cisbio Bioassays has developed a wide selection of HTRF-based assays compatible with whole cells, thereby enabling functional assays to run under more physiological conditions. The IP-One assays are competitive immunoassays using cryptate-labeled anti-IP1 monoclonal antibody and d2-labeled IP1. IP1 is a relatively stable downstream metabolite of IP3, and accumulates in cells following Gq receptor activation.
cAMP kits based on a competitive immunoassay using cryptate-labeled anti-cAMP antibody and d2-labeled cAMP were used to assay the effects of APJ compounds of the present invention. […] Cells are treated with 1 nG/mL doxycycline and seeded in all white 96 well plates @40 k/well overnight.

[2] = histamine release from rat peritoneal cells relative to Compound 48/80
[3] = EC50 (cAMP inhibition, hAPJ HEK), Table 6, hAPJ HEK cells, NKH477-stimulated cAMP
[4] = Table 6, hAPJ HEK cells, NKH477-stimulated cAMP, read-out: EC50 (cAMP inhibition, hAPJ HEK)
[5] = HTRF cAMP Assay, per data of Table 6
[6] = HTRF cAMP Assay, per data of Table 6, read-out: EC50 (hAPJ), inhibition of cAMP production, bound stated

SMILES | Histamine (% vs. 48/80) (rat peritoneal cells; [2]) [%] | EC50 [1, 3] [nM] | % IA (cAMP inhibition, hAPJ HEK) ([1]; Table 6, hAPJ HEK cells) [%] | Ranking [1] | Histamine (% vs. 48/80) (rat peritoneal cells) [%] | EC50 [1, 4] [nM] | Emax [1, 5] [%] | EC50 [1, 6] [nM] | EC50 ([1]; EC50 (hAPJ), inhibition of cAMP production, bound stated, HTRF cAMP Assay, per data of Table 6) [nM] | inhibition of NKH477-stimulated increase in cAMP, dose dependent ([1]; concentration response curves, FIGS. 1 and 2, HEK cells stably expressing APJ)
CCCCCCCCCCCCCCCC(=O)N[C@H](C(=O)N[C@H](C(=O)N1CCC[C@H]1C(=O)N[C@@H](Cc1ccccc1)C(=O)N[C@@H](CCCNC(=N)N)C(=O)N[C@@H](CO)C(=O)N[C@@H](CO)C(=O)N[C@@H](CCC(=O)O)C(=O)N1CCC[C@H]1C(=O)N[C@H](CCCCN)C(=O)N[C@@H](CCCNC(=N)N)C(=O)N[C@@H](CCCNC(=N)N)C(=O)N[C@@H](CO)C(=O)N[C@@H](C)C(=O)N[C@@H](CC(=O)O)C(=O)N[C@H](C(=O)N[C@@H](Cc1ccccc1)C(=O)N[C@H](C(N)=O)[C@@H](C)CC)[C@@H](C)CC)C(C)C)[C@@H](C)O [Compound 1] (HELM PEPTIDE1{[CCCCCCCCCCCCCCCC(=O)[*:2]].T.V.P.F.R.S.S.E.P.[dK].R.R.S.A.D.I.F.I.[am]}$$$$V2.0) | 53 | 4 | 57 | ** (EC50 25-50 nM (hAPJ), % IA 50-79% and either % histamine>35% or formal (+) charge>1) |  |  |  |  |  | 
CCCCCCCCCCCCCCCC(=O)N[C@H](C(=O)N1CCC[C@H]1C(=O)N[C@H](C(=O)N[C@@H](Cc1ccccc1)C(=O)N[C@@H](CCCNC(=N)N)C(=O)N[C@@H](CO)C(=O)N[C@@H](CO)C(=O)N1CCC[C@H]1C(=O)N[C@@H](CCC(=O)O)C(=O)N[C@H](CCCCN)C(=O)N[C@@H](CCCNC(=N)N)C(=O)N[C@@H](CCCNC(=N)N)C(=O)N[C@@H](CO)C(=O)N[C@@H](C)C(=O)N[C@@H](CC(=O)O)C(=O)N[C@H](C(=O)N[C@@H](Cc1ccccc1)C(=O)N[C@H](C(N)=O)[C@@H](C)CC)[C@@H](C)CC)C(C)C)[C@@H](C)O [Compound 2] (HELM PEPTIDE1{[CCCCCCCCCCCCCCCC(=O)[*:2]].T.P.V.F.R.S.S.P.E.[dK].R.R.S.A.D.I.F.I.[am]}$$$$V2.0) | 49 | 4 | 60 | ** (EC50 25-50 nM (hAPJ), % IA 50-79% and either % histamine>35% or formal (+) charge>1) |  |  |  |  |  | 
CCCCCCCCCCCCCCCC(=O)N1CCC[C@H]1C(=O)N[C@@H](CCC(=O)O)C(=O)N[C@H](CCCCN)C(=O)N[C@@H](CCCNC(=N)N)C(=O)N[C@@H](CCCNC(=N)N)C(=O)N[C@@H](CO)C(=O)N[C@@H](C)C(=O)N[C@@H](CC(=O)O)C(=O)N[C@H](C(=O)N[C@@H](Cc1ccccc1)C(=O)N1CCC[C@H]1C(N)=O)[C@@H](C)CC [Compound 4] (HELM PEPTIDE1{[CCCCCCCCCCCCCCCC(=O)[*:2]].P.E.[dK].R.R.S.A.D.I.F.P.[am]}$$$$V2.0) |  |  | 48 | * (EC50≦50 nM (hAPJ), % IA<50%) | -1 | 9 |  |  |  | 
CCCCCCCCCCCCCCCC(=O)N[C@H](C(=O)N[C@H](C(=O)N[C@@H](CC(=O)O)C(=O)N[C@@H](CCCNC(=N)N)C(=O)N[C@@H](CO)C(=O)N[C@@H](CO)C(=O)N[C@@H](CCC(=O)O)C(=O)N[C@H](CCCCN)C(=O)N[C@@H](CCCNC(=N)N)C(=O)N[C@@H](CCCNC(=N)N)C(=O)N[C@@H](CO)C(=O)N[C@@H](C)C(=O)N[C@@H](CC(=O)O)C(=O)N[C@@H](Cc1ccc(CN)cc1)C(=O)N[C@@H](Cc1ccccc1)C(=O)N[C@H](C(N)=O)[C@@H](C)CC)C(C)C)[C@@H](C)O [Compound 34, TVDRSSEkRRSAD(p-CH2NH2-Phe)FI] (HELM PEPTIDE1{[CCCCCCCCCCCCCCCC(=O)[*:2]].T.V.D.R.S.S.E.[dK].R.R.S.A.D.[NCc1ccc(C[C@H](N[*:1])C(=O)[*:2])cc1].F.I.[am]}$$$$V2.0) |  |  | 104 | *** (EC50 25-50 nM (hAPJ), % IA 50-79% and either % histamine≦35% or formal (+) charge≦1) |  | 30 | 50 to 79 | 25 to 50 |  | 
CCCCCCCCCCCCCCCC(=O)N[C@@H](CC(=O)O)C(=O)N[C@H](C(=O)N[C@@H](Cc1c[nH]cn1)C(=O)N[C@@H](CCCNC(=N)N)C(=O)N[C@@H](CO)C(=O)N[C@@H](CO)C(=O)N[C@@H](CCC(=O)O)C(=O)N[C@H](CCCCN)C(=O)N[C@@H](CCCNC(=N)N)C(=O)N[C@@H](CCCNC(=N)N)C(=O)N[C@@H](CO)C(=O)N[C@@H](C)C(=O)N[C@@H](CC(=O)O)C(=O)N[C@H](C(=O)N[C@@H](Cc1ccccc1)C(=O)N[C@H](C(N)=O)[C@@H](C)CC)[C@@H](C)CC)C(C)C [Compound 35] (HELM PEPTIDE1{[CCCCCCCCCCCCCCCC(=O)[*:2]].D.V.H.R.S.S.E.[dK].R.R.S.A.D.I.F.I.[am]}$$$$V2.0) |  | 32 | 90 | *** (EC50 25-50 nM (hAPJ), % IA 50-79% and either % histamine≦35% or formal (+) charge≦1) |  |  | 50 to 79 |  | 25 to 50 | 
CCCCCCCCCCCCCCCC(=O)N[C@@H](CC(=O)O)C(=O)N[C@H](C(=O)N[C@@H](Cc1c[nH]cn1)C(=O)N[C@@H](CCCNC(=N)N)C(=O)N[C@@H](CO)C(=O)N[C@@H](CO)C(=O)N[C@@H](CCC(=O)O)C(=O)N[C@H](CCCCN)C(=O)N[C@@H](CCCNC(=N)N)C(=O)N[C@@H](CCCNC(=N)N)C(=O)N[C@@H](CO)C(=O)N[C@@H](C)C(=O)N[C@@H](CC(=O)O)C(=O)N[C@@H](CCC(N)=O)C(=O)N[C@@H](Cc1ccccc1)C(=O)N[C@H](C(N)=O)[C@@H](C)CC)C(C)C [Compound 36] (HELM PEPTIDE1{[CCCCCCCCCCCCCCCC(=O)[*:2]].D.V.H.R.S.S.E.[dK].R.R.S.A.D.Q.F.I.[am]}$$$$V2.0) |  |  | 101 | ***** (EC50≦25 nM (hAPJ), % IA≧80% and either % histamine≦35% or formal (+) charge≦1) |  | 2 | ≥ 80 | ≤ 25 |  | inhibited
